According to article PMC4302242 (Psychopharmacology, 2014):
Non-standard residues stand in square brackets, D forms with d. Residues, ends and D or L forms follow the SMILES beside them.

Columns and labels:
C57Bl/6J mice [1] = conditions: kaïnate 25 mg/kg i.p.
Method: Kaïnate solutions were prepared in a solution of 140 mM NaCl (saline solution).
Mice (n = 10 per group) were monitored during 2 h for onset and extent of seizures. Six levels of seizure severity were defined: (1) immobility, (2) head/neck movements, (3) clonic unilateral activity, (4) clonic bilateral activity, (5) generalized convulsions, and (6) death. Seizure severity was blindly scored (Tsirka et al. [1995]). The seizure index was calculated by averaging the points for seizure activity in each group (n = 10 per treatment).

C57Bl/6J mice [2] = conditions: 10 μg/kg i.v. once a day for 4 days, test on day 5, mean ± SEM; saline 305.00 ± 62.47 s
Method: Naïve male C57Bl/6J mice from 7 to 9 weeks old were used in all experiments (Janvier Laboratory, Saint Berthevin, France). Mice were housed (10 animals per cage) under a 12:12 light–dark cycle (light on at 8:00 am) in a ventilated room at a temperature of 22 ± 1 °C. Animals had free access to water and food (A03; SAFE, Augy, France).
(§1) For acute treatment, drugs were administered in a single 100-μL bolus 30 min prior to the beginning of the behavioral tests. For subchronic treatment, drugs were injected during four consecutive days, and behavioral tests were performed on day 5, without additional injection.
The NSF paradigm is a 2-day test protocol. On day 1, mice were deprived from food. On day 2, mice were placed in a highly brightly lit area, in a plastic box (45 × 45 × 20 cm), with a floor covered with wooden bedding. The test was carried out during a 10-min period. During this time, the latency to eat was measured. During the test, a single pellet of food was placed in the center of the box, on a white platform.

hERG channel (IKR) = hERG channel (IKR) (Homo sapiens, UniProt Q12809); conditions: 10 μM
Method: HEK-293 native cells were grown in serum in an atmosphere of 95 % air/5 % CO2 in Dulbecco’s modified Eagle’s medium supplemented with 10 % (v/v) heat-inactivated fetal bovine containing 1 % (v/v) of penicillin/ streptomycin and Glutamax X 1. Cells were plated at a density of 20,000 cells/35 mm dish, and after 24 h, cells were transfected using the Jet PEI method (Polyplus, France) with 25 ng/35 mm dish of p-IRES-HERG channel vector. Patch clamp experiments were carried out 48 h after transfection.
All electrophysiological recordings were performed in whole cell configuration of the patch clamp technique except for IKS measures which were obtained by using the patch clamp perforated configuration (amphotericin B 0.9 mg/mL in the pipette medium) (Moha ou Maati et al. [2011b]). Each current was evaluated by using a RK 400 patch clamp amplifier (Axon Instrument, USA), low-pass filtered at 3 kHz, and digitized at 10 kHz using a 12-bit analog-to-digital converter digidata (1322 series, Axon Instrument, USA). All current amplitudes are expressed in current densities. Results are expressed as mean ± standard error of the mean (SEM). […] The bath solution contained (in mM) 150 NaCl, 5 KCl, 3 MgCl2, 1 CaCl2, and 10 4-(2-hydroxyethyl)piperazine 1- ethane sulfonic acid (HEPES) adjusted to pH 7.4 with NaOH. The pipette solution contained (in mM) 155 KCl, 3 MgCl2, 5 EGTA, and 10 HEPES adjusted to pH 7.2 with KOH. […] Stimulation protocols and data acquisition were carried out using a microcomputer (Dell Pentium) with a commercial software and hardware (pClamp 8.2). Currents were recorded by voltage clamp steps to membrane potentials of −100 to +60 mV in 20-mV steps applied from a holding potential of −80 mV. The duration of depolarization pulses was 825 ms, and the pulse cycling rate was 5 s. […] Cells were continuously superfused with microperfusion system.
Tail currents were generated by repolarization to −40 mV. […] The amplitudes of IKS and IKR currents were calculated at both the end of the first pulse and the peak of the tail pulse.

human TREK-1 channel [3] = molecular target: T1, human TREK-1 channel (Homo sapiens, UniProt O95069); test: cell-based
Method: (§2) The human-TREK-1/HEK293 cell line (h-TREK-1/HEK) (Moha ou Maati et al. [2011a]) and HEK-IKS cell line (Ducroq et al. [2010]) were grown in the presence of 0.5 mg/mL G418 in Dulbecco’s modified Eagle’s medium supplemented with 10 % (v/v) heat-inactivated fetal bovine serum containing 1 % (v/v) penicillin/streptomycin in an atmosphere of 95 % air/5 % CO2 as previously described (Moha ou Maati et al. [2011a]).
(§3) All electrophysiological experiments were performed on h-TREK-1/HEK cells seeded at a density of 20,000 cells/35 mm dish after 2–6 days of culture. All electrophysiological recordings were performed in whole cell configuration of the patch clamp technique except for IKS measures which were obtained by using the patch clamp perforated configuration (amphotericin B 0.9 mg/mL in the pipette medium) (Moha ou Maati et al. [2011b]). Each current was evaluated by using a RK 400 patch clamp amplifier (Axon Instrument, USA), low-pass filtered at 3 kHz, and digitized at 10 kHz using a 12-bit analog-to-digital converter digidata (1322 series, Axon Instrument, USA). All current amplitudes are expressed in current densities. Results are expressed as mean ± standard error of the mean (SEM). […] The bath solution contained (in mM) 150 NaCl, 5 KCl, 3 MgCl2, 1 CaCl2, and 10 4-(2-hydroxyethyl)piperazine 1- ethane sulfonic acid (HEPES) adjusted to pH 7.4 with NaOH. The pipette solution contained (in mM) 155 KCl, 3 MgCl2, 5 EGTA, and 10 HEPES adjusted to pH 7.2 with KOH. TREK-1 currents were evaluated at room temperature (21–22 °C) in the presence of a cocktail of potassium channel inhibitors (K^+ blockers, 3 mM 4-aminopyridine (4-AP), 10 mM tetraethylammonium (TEA), 10 μM glibenclamide, 100 nM apamin, and 50 nM charybdotoxin). Stimulation protocols and data acquisition were carried out using a microcomputer (Dell Pentium) with a commercial software and hardware (pClamp 8.2). Currents were recorded by voltage clamp steps to membrane potentials of −100 to +60 mV in 20-mV steps applied from a holding potential of −80 mV. The duration of depolarization pulses was 825 ms, and the pulse cycling rate was 5 s. TREK-1 current amplitudes were evaluated at the end of stimulation pulses. Cells were continuously superfused with microperfusion system.
(§4) All experiments were performed on h-TREK-1/HEK cell line in the presence of a mixture of K^+ channels blockers and by using the whole cell configuration of the patch clamp technique. a Control currents (black-filled circles, K^+ blockers) were amplified by the application of 10 μM of arachidonic acid (white-filled circles, K^+ blockers + AA).

C57Bl/6J mice [4] = conditions: 10^-5 M in 100 μL bolus i.v. 30 min before the test, monitored 24 h, n = 8 per group
Method: Locomotor activity was monitored individually for 24 h using an infrared photobeam activity monitoring system (Imetronic, Pessac, France), which measured consecutive horizontal beam breaks. […] Locomotor activity was defined as breaking of consecutive photobeams. Movements were recorded and totalized for each 10-min time section. Six periods were pooled to obtain data for 1 h of time. Different movements were monitored: the coming-and-going between the back and the front of the cage, climbing, and other movements in the back or the front of the cage. Mice were kept under standard laboratory conditions: 12:12 light–dark cycle with free access to food and water during the experiment.
Mice were injected 30 min before to be placed in an infrared photobeam activity monitoring system. Spontaneous locomotor activity was monitored individually for 24 consecutive hours. The number of coming-and-going (a), climbing (b), and total movements except climbing (c) were monitored for each mouse for 10 min section and pooled by 6 to obtain values corresponding to 1 h.

human TREK-1 channel [5] = molecular target: T1, human TREK-1 channel; conditions: h-TREK-1/HEK cells, current at 0 mV, n = 10 to 12
Method: as §2, §3, §4

human-IKS current = human-IKS current (Homo sapiens, UniProt P51787); conditions: 10 μM
Method: as §2
All electrophysiological recordings were performed in whole cell configuration of the patch clamp technique except for IKS measures which were obtained by using the patch clamp perforated configuration (amphotericin B 0.9 mg/mL in the pipette medium) (Moha ou Maati et al. [2011b]). Each current was evaluated by using a RK 400 patch clamp amplifier (Axon Instrument, USA), low-pass filtered at 3 kHz, and digitized at 10 kHz using a 12-bit analog-to-digital converter digidata (1322 series, Axon Instrument, USA). All current amplitudes are expressed in current densities. Results are expressed as mean ± standard error of the mean (SEM). […] The bath solution contained (in mM) 150 NaCl, 5 KCl, 3 MgCl2, 1 CaCl2, and 10 4-(2-hydroxyethyl)piperazine 1- ethane sulfonic acid (HEPES) adjusted to pH 7.4 with NaOH. The pipette solution contained (in mM) 155 KCl, 3 MgCl2, 5 EGTA, and 10 HEPES adjusted to pH 7.2 with KOH. […] Stimulation protocols and data acquisition were carried out using a microcomputer (Dell Pentium) with a commercial software and hardware (pClamp 8.2). […] Cells were continuously superfused with microperfusion system.
IKS currents were activated by voltage clamp steps of membrane potentials from −100 to +100 mV in 20-mV steps applied from a holding potential of −80 mV. Tail currents were generated by repolarization to −40 mV. Duration of both depolarization and repolarization pulses was 2.4 s, and the pulse cycling rate was 10 s. […] The amplitudes of IKS and IKR currents were calculated at both the end of the first pulse and the peak of the tail pulse.

C57Bl/6J mice [6] = conditions: for FST immobility time, subchronic treatment: 10 μg/kg i.v. once a day for 4 days, test on day 5, mean ± SEM, saline 161.80 ± 8.12 s; for FST immobility time, acute treatment: 10 μg/kg single i.v. bolus, 30 min before the test, saline 166.13 ± 5.54 s; for FST immobility time, acute treatment / FST immobility time 1 h after injection (action duration): n = 10, mean ± SEM; for FST immobility time 1 h after injection (action duration): naïve mice at each time; for FST immobility time 1 h after injection (action duration) / FST immobility time 16 h after injection (action duration): saline 170.3 ± 4.5 s (spadin series), 162.7 ± 4.7 s (analog series); for FST immobility time 16 h after injection (action duration): naïve mice, mean ± SEM
Method: Naïve male C57Bl/6J mice from 7 to 9 weeks old were used in all experiments (Janvier Laboratory, Saint Berthevin, France). Mice were housed (10 animals per cage) under a 12:12 light–dark cycle (light on at 8:00 am) in a ventilated room at a temperature of 22 ± 1 °C. Animals had free access to water and food (A03; SAFE, Augy, France). All experiments were conducted according to policies on the care and use of laboratory animals of the Society for Neuroscience and also with respect to national laws on animal use.
as §1
The animals were individually placed in a non-escapable cylinder (height 30 cm, diameter 15 cm) filled with 15-cm water at 22 ± 1 °C. The trial was conducted for 6 min. The total period of immobility was manually measured during the last 4 min of the test. A mouse was considered immobile when it remained floating with only slight movements to keep its head above water.

C57Bl/6J mice [7] = conditions: water bath 48 °C, 10 μg/kg i.v. 30 min before the test, n = 10 per group, two determinations averaged, mean ± SEM; saline 12.75 ± 0.96 s
Method: The tail was immersed in a water bath at 48 °C until withdrawal was observed (cutoff time 30 s). Two separate withdrawal latency time determinations were averaged (Alloui et al. [2006]).
For each mouse, the time to withdraw its tail immersed in a water bath at 48 °C was measured twice and averaged.

C57Bl/6J mice [8] = conditions: 10 μg/kg i.v. for four consecutive days, hippocampal dentate gyrus
Method: One day after 5-bromo-2′-deoxyuridine (BrdU) injections, 12 mg per animal divided in four bolus of 300 μL injected every 2 h, mice were anesthetized with isoflurane and transcardially perfused with 20 mL of NaCl 0.9 % followed by 20 mL paraformaldehyde 4 %/NaCl 0.9 %. By using a vibratome (Leica), brains were cut into 40-μm sections, throughout the entire hippocampus. […] For each BrdU labeling, slices were first incubated with a mouse monoclonal anti-BrdU antibody (1/8,000, Becton Dickinson). For chromogenic immunodetection, sections were incubated during 2 h in biotin-conjugated species-specific secondary antibodies (1/400; Vector laboratories) followed by a peroxidase-avidin complex solution, to amplify the reaction. The peroxidase activity of immune complex was visualized with DAB staining using the VectaStain ABC kit according to the manufacturer’s protocol (Vector Laboratories).

Chain of hERG channel (IKR) (Q12809 whole entry): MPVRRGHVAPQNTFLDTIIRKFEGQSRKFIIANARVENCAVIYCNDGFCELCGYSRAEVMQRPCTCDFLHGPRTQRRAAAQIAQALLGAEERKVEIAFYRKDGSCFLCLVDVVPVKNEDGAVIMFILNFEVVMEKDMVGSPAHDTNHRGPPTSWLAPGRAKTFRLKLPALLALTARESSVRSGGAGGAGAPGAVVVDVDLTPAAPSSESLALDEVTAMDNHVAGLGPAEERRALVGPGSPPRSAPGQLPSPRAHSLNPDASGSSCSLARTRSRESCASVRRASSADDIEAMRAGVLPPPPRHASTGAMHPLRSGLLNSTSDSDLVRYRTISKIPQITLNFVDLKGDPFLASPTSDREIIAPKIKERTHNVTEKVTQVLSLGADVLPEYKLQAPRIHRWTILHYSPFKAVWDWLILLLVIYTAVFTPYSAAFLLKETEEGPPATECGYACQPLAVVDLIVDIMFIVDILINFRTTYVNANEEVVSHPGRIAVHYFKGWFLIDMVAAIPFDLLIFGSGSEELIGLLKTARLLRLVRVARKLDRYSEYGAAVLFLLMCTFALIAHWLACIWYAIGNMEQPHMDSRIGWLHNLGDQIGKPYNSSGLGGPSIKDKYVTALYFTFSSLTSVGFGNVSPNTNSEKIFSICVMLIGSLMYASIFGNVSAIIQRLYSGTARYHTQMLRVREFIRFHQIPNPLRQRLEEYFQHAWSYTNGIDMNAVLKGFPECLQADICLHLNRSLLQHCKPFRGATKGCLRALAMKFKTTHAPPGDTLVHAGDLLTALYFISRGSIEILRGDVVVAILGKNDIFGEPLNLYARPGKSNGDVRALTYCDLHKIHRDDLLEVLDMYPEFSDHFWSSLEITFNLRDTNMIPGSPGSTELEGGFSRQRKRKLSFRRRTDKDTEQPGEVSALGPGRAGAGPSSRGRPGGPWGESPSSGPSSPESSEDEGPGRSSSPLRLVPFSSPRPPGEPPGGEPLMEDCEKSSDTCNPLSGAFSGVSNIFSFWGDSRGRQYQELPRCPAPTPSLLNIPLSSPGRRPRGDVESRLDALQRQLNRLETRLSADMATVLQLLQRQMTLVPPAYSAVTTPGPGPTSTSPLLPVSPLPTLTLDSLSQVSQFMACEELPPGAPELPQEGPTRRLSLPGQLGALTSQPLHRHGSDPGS
T1 sequence (O95069 whole entry): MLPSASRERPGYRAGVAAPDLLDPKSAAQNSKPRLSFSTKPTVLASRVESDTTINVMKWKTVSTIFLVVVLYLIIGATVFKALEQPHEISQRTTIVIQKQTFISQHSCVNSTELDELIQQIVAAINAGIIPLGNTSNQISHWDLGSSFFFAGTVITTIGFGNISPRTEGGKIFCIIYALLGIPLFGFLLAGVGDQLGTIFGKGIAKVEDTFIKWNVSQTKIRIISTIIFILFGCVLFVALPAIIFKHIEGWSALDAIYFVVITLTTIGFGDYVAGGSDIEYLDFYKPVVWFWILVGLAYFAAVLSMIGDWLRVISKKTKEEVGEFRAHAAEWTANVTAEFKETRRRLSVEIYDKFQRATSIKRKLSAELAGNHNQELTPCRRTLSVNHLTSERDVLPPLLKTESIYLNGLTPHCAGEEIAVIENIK
Chain of human-IKS current (P51787 whole entry): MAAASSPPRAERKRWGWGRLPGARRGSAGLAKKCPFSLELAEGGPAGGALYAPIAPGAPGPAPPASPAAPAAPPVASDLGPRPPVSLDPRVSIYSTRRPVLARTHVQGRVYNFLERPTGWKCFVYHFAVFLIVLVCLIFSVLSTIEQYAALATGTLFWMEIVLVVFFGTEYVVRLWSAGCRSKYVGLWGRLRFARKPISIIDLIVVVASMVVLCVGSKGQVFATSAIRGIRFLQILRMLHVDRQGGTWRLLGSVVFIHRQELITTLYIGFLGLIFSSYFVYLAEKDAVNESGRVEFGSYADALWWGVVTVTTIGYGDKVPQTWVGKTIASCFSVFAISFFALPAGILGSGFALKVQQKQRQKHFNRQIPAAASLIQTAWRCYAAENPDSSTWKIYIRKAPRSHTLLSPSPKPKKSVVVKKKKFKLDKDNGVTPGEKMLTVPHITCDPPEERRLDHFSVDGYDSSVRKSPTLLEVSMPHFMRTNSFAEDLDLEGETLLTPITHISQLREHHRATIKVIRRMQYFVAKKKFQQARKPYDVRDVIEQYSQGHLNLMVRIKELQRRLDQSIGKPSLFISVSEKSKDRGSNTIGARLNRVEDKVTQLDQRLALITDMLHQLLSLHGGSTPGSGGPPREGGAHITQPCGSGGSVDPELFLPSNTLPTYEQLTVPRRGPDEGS

Molecule | NSF latency to feed, subchronic treatment (C57Bl/6J mice [2]) [s] | IC50 (human TREK-1 channel [3]) [µM] | TREK-1 blockade at 100 nM compared with spadin (in words) (human TREK-1 channel [5]) | FST immobility time, subchronic treatment (C57Bl/6J mice [6]) [s] | FST immobility time, acute treatment (C57Bl/6J mice [6]) [s] | FST immobility time 1 h after injection (action duration) (C57Bl/6J mice [6]) [s] | FST immobility time 16 h after injection (action duration) (C57Bl/6J mice [6]) [s] | also measured
CC[C@@H](C)[C@@H](NC(=O)CNC(=O)[C@H](NC(=O)[C@@H](CO)NC(=O)[C@@H](Cc1c[nH]c2ccccc12)NC(=O)CNC(=O)[C@@H](CC(C)C)NC(=O)[C@@H](CCCNC(=N)N)NC(C)=O)C(C)C)C(=O)N1CCC[C@@H]1C(=O)NCC(=O)N[C@H](CO)C(=O)N[C@H](Cc1c[nH]c2ccccc12)C(=O)N[C@H](CCCNC(=N)N)C(=O)N1CCC[C@@H]1C(=O)N[C@H](CC(C)C)C(=O)N1CCC[C@@H]1C(=O)N[C@H](C)C(N)=O [analog 3] (Ac-[dR][dL]G[dW][dS][dV]G[dI][dP]G[dS][dW][dR][dP][dL][dP][dA]-NH2) | 143.88 ± 23.42 | 0.0115 ± 0.00059 | increased blockade effect when compared to spadin | 114.9 ± 9.82 | 135.10 ± 8.11 | 123.4 ± 7.0 | 129.6 ± 12.7 | Effect on kaïnate-triggered seizures, 1 μg/kg (C57Bl/6J mice [1]; 1 μg/kg i.v., n = 10): no protective effect; Effect on kaïnate-triggered seizures, 10 μg/kg (C57Bl/6J mice [1]; 10 μg/kg i.v., n = 10, monitored 2 h): important protective effect; Number of mice reaching the two less severe seizure stages (immobility, head or neck movements) (C57Bl/6J mice [1]; 10 μg/kg i.v., n = 10, saline: at least 9 among 10, five died): two mice among 10; Effect on IKR current (hERG channel (IKR); HEK cells expressing hERG): did not modify currents; IKR tail current density at 0 mV in the presence of the analog (hERG channel (IKR); n = 5, mean ± SEM, control 204.59 ± 34.18 pA/pF): 212.99 ± 38.38 pA/pF; IKR current density at 0 mV, end of first pulse, in the presence of the analog (hERG channel (IKR); n = 5, mean ± SEM, control 225.14 ± 33.09 pA/pF): 224.48 ± 35.94 pA/pF; Amount recovered in a half brain (10 nmol i.v. (100 μL of 100 μM, caudal vein), 30 min after injection, acidic extraction, RP18 HPLC, standard curve 50-200 pmol, estimated): ~100 pmol; Yield to cross the blood-brain-barrier (10 nmol i.v., 30 min after injection, amount per brain relative to injected amount): ~2%; Amount recovered per brain (10 nmol i.v., 30 min after injection, extrapolated from a half brain): ~200 pmol; HPLC peak in brain extract 60 min after injection (10 nmol i.v., 60 min after injection): disappeared after 60 min; Locomotor activity versus saline-treated mice (coming-and-going, climbing, total movements) (C57Bl/6J mice [4]): no significant difference; Effect on IKS current (human-IKS current; HEK-IKS cells): did not modify currents; IKS tail current density at 0 mV in the presence of the analog (human-IKS current; n = 5, mean ± SEM, control 8.33 ± 1.78 pA/pF): 8.33 ± 2.06 pA/pF; IKS current density at 0 mV, end of pulse, in the presence of the analog (human-IKS current; n = 5, mean ± SEM, control 17.65 ± 3.84 pA/pF): 17.58 ± 4.03 pA/pF; Tail withdrawal time (C57Bl/6J mice [7]): 11.32 ± 1.04 s
CC[C@H](C)[C@H](NC(=O)[C@@H]1CCCN1C(=O)CNC(=O)[C@H](CO)NC(=O)[C@H](Cc1c[nH]c2ccccc12)NC(=O)[C@H](CCCNC(=N)N)NC(=O)[C@@H]1CCCN1C(=O)[C@H](CC(C)C)NC(=O)[C@@H]1CCCN1C(=O)[C@H](C)NC(=O)[C@H](C)NC(=O)[C@@H]1CCCN1C(=O)[C@@H]1CCCN1C(=O)[C@@H]1CCCN1C(=O)[C@@H]1CCCN1C(=O)[C@H](C)NC(=O)[C@H](CC(=O)O)NC(=O)[C@H](CC(C)C)NC(=O)[C@H](CCCNC(=N)N)NC(=O)[C@H](CC(=O)O)NC(=O)[C@H](CCC(N)=O)NC(C)=O)C(=O)NCC(=O)N[C@H](C(=O)N[C@@H](CO)C(=O)N[C@@H](Cc1c[nH]c2ccccc12)C(=O)NCC(=O)N[C@@H](CC(C)C)C(=O)N[C@@H](CCCNC(=N)N)C(N)=O)C(C)C [analog 7] | – | – | bad inhibitor of TREK-1 channels | – | – | – | – | –
CC[C@@H](C)[C@@H](NC(=O)CNC(=O)[C@H](NC(=O)[C@@H](CO)NC(=O)[C@@H](Cc1c[nH]c2ccccc12)NC(=O)CNC(=O)[C@@H](CC(C)C)NC(=O)[C@@H](CCCNC(=N)N)NC(C)=O)C(C)C)C(=O)N1CCC[C@@H]1C(=O)NCC(=O)N[C@H](CO)C(=O)N[C@H](Cc1c[nH]c2ccccc12)C(=O)N[C@H](CCCNC(=N)N)C(=O)N1CCC[C@@H]1C(=O)N[C@H](CC(C)C)C(=O)N1CCC[C@@H]1C(=O)N[C@H](C)C(=O)N[C@H](C)C(=O)N1CCC[C@@H]1C(=O)N1CCC[C@@H]1C(=O)N1CCC[C@@H]1C(=O)N1CCC[C@@H]1C(=O)N[C@H](C)C(=O)N[C@H](CC(=O)O)C(=O)N[C@H](CC(C)C)C(=O)N[C@H](CCCNC(=N)N)C(=O)N[C@H](CC(=O)O)C(=O)N[C@H](CCC(N)=O)C(N)=O [analog 8] (Ac-[dR][dL]G[dW][dS][dV]G[dI][dP]G[dS][dW][dR][dP][dL][dP][dA][dA][dP][dP][dP][dP][dA][dD][dL][dR][dD][dQ]-NH2) | 167.00 ± 22.96 | 0.00995 ± 0.00085 | increased blockade effect when compared to spadin | 124.1 ± 10.53 | 83.60 ± 9.01 | 121.7 ± 5.2 | 129.1 ± 12.0 | Tail withdrawal time (C57Bl/6J mice [7]): 13.85 ± 0.72 s
Ac-APLPRWSGPIGVSWGLR-NH2 [analog 2] | – | 0.06 ± 0.00041 | – | – | – | – | – | –
Ac-APPPPAAPLPRWSGPIGVSWGLR-NH2 [analog 9] | – | – | inhibitory effect close to that of spadin | – | – | – | – | –
Ac-QDRLDAPPPPAAPLPRWSGPIGVSWGLRAAAAGGAFPRGGRWRR-NH2 [analog 11] | – | – | reduced blocking effect on TREK-1 channels | – | – | – | – | –
Ac-[dR][dR][dW][dR]GG[dR][dP][dF][dA]GG[dA][dA][dA][dA][dR][dL]G[dW][dS][dV]G[dI][dP]G[dS][dW][dR][dP][dL][dP][dA][dA][dP][dP][dP][dP][dA][dD][dL][dR][dD][dQ]-NH2 [analog 12] | – | – | did not display a better efficacy | – | – | – | – | –
spadin [reference compound] | 151.11 ± 17.70 | – | – | 123.70 ± 7.16 | 107.40 ± 5.05 | 102.4 ± 6.2 | 175.3 ± 7.5 | Increase of the number of BrdU-positive cells in SGZ versus saline (factor) (C57Bl/6J mice [8]): ≥ 2; FST immobility time 3 h after injection (action duration) (C57Bl/6J mice [6]; 3 h after injection (order of values follows order of times), saline 170.3 ± 4.5 s): 113.2 ± 5.0 s; FST immobility time 7 h after injection (action duration) (C57Bl/6J mice [6]; 7 h after injection (order of values follows order of times), saline 170.3 ± 4.5 s): 150.8 ± 6.5 s; Biological half-life time measured by the FST (C57Bl/6J mice [6]; from loss of FST efficacy with time after injection): around 6 h
